{"source": "paper PMC6433934", "about": "“Preclinical Evaluation of Bispecific Adaptor Molecule Controlled Folate Receptor CAR-T Cell Therapy With Special Focus on Pediatric Malignancies” (Frontiers in Oncology, 2019)", "system": "HOS-FRα tumor-bearing mice", "test": "Toxicity and CRS rescue with sodium fluorescein", "format": "in vivo", "settings": "sodium fluorescein i.v. ~95 mg/kg, severe CRS, 35 million total CAR-T cells (93:7 CD4/CD8), plasma 6 h later", "method": "Depending on the CAR-T cell dose and how EC17 is administered, tumor-bearing mice receiving FITC-specific CAR-T cells can experience severe CRS and varying degrees of body weight loss ([27], [33], [34]). Therefore, we developed a CRS grading system (0–5 scale) to empirically assess CRS toxicity from animals' gross morphology and social behavior to allow for better timing of CRS rescue. While grades 0 and 5 indicated normal (no CRS) or death (due to severe CRS), respectively, grades 1, 2, and 3–4 were considered mild, light-to-moderate, and severe CRS. In addition, all EC17 doses were intentionally given toward the end of any given day to allow potential CRS symptoms to develop overnight. On the days immediately following each EC17 dose, animals were scored and rescue agents such as sodium fluorescein, folic acid and leucovorin were used to mitigate CRS toxicity ([33]). In this particular instance, a batch of E2-CAR-T cells with a high EGFRt+ CD4/CD8 ratio (~93:7) was given to HOS-FRα tumor-bearing mice at a mixture of ~2.5 million CD8 and ~33 million CD4 on day 0. When EC17 was dosed, respectively, at 500, 100, and 500 nmol/kg on days 3, 10, and 12, low CRS (grades 1–2) was noted on days 4 and 11 but high CRS (grade 3) was noted on day 13. To mitigate the severe CRS toxicity, sodium fluorescein was intravenously administrated at ~96 mg/kg in the morning of day 13 and mouse plasma samples were collected 6 h later for analysis of CRS-associated cytokines."}
{"smiles": "O=C([O-])c1ccccc1-c1c2ccc(=O)cc-2oc2cc([O-])ccc12.[Na+].[Na+]", "note": "[sodium fluorescein, reference compound]", "values": [{"measurement": "CAR-T cell derived human cytokines after CRS rescue", "result": "acted very quickly to reduce CAR-T cell derived human cytokines"}]}
